From patent US20120264902A1 (The Regents of the University of Colorado, a body corporate, priority 2011, published 2012)
Values after ≈ are worked out from the molar mass of the structure shown. Where two headings read alike, the source gives them in different places.

How the values were obtained:
B. subtilis = assay: MIC evaluation general protocol, B. subtilis aerobic (Table 11); assay type: cell-based, Bacillus subtilis; details: B. subtilis 168, M9 + glu + trp, growth with 3-HP and the named supplement (label 3-HP = no supplement)
Method: The minimum inhibitory concentration (MIC) was determined aerobically in a 96 well-plate format. […] Overnight cultures of strains were grown in triplicate in 5 mL LB (with antibiotic where appropriate). A 1% (v/v) inoculum was introduced into a 5 ml culture of M9 minimal media+glutamate.

[1] = Preparation of neutralized 3-HP stock solution (observation at neutral pH); assay type: physicochemical; details: pH 7, aqueous buffer
Description: 3-HP was obtained from TCI America (Portland, Oreg.). Significant acrylic acid and 2-oxydipropionic contamination was observed via HPLC analysis. Samples were subsequently treated by diethyl ether extraction to remove acrylic acid and a portion of the 2-oxydipropionic contaminants. Samples were then neutralized with 10 M NaOH to a final pH of 7.0. […] The working stock solution was used for the selection and MIC evaluations in this example.
3-HP was obtained from TCI America (Portland, Oreg.). Significant acrylic acid and 2-oxydipropionic contamination was observed via HPLC analysis. Samples were subsequently treated by diethyl ether extraction to remove acrylic acid and a portion of the 2-oxydipropionic contaminants. Samples were then neutralized with 10 M NaOH to a final pH of 7.0. […] The working stock solution was used for the selection, growth rates and MIC evaluations in this example.

E. Coli BW25113 [2] = assay: MIC evaluation general protocol, E. Coli aerobic (Tables 6 and 8); assay type: cell-based; details: for average MIC Assay Result (g/L 3-HP): MIC of 3-HP for strain BW25113 in M9 media with the named supplement(s); for % Increase Over Control: increase of 3-HP MIC vs BW25113 in M9 without supplement
Method: The minimum inhibitory concentration (MIC) was determined aerobically in a 96 well-plate format. […] Overnight cultures of strains were grown in triplicate in 5 mL LB (with antibiotic where appropriate). A 1% (v/v) inoculum was introduced into a 5 ml culture of M9 minimal media.
(§1) For the above MIC evaluations, the final results are expressed in chemical agent concentrations determined by analysis of the stock solution by HPLC (i.e., see Subsection Mb).

[3] = tested on: Yeast strains, S288 C background; assay: Yeast anaerobic MIC evaluation (Tables 14 and 16); assay type: cell-based, Saccharomyces cerevisiae; details: for MIC: Saccharomyces cerevisiae, read-out: Average MIC Assay Result (g/L 3-HP)
Method: The minimum inhibitory concentration (MIC) was determined anaerobically in a 96 well-plate format. […] A 1% (v/v) inoculum was introduced into a 5 ml culture of SD minimal media without vitamins. After the cells reached mid-exponential phase, the culture was diluted to an OD600 of 0.200. The cells were further diluted 1:5 and a 10 μL aliquot was used to inoculate each well of a 96 well plate (˜10^4 cells per well) to total volume of 100 uL. […] Plates were incubated for 72 hours at 30 C. […] Plates were sealed in biobag anaerobic chambers that contained gas generators for anaerobic conditions and incubated for 72 hours at 30 C.

E. Coli K12 = assay type: cell-based, Escherichia coli; details: E. Coli K12, M9 minimal media, control or supplemented, aerobic, 24 hours
Method: Overnight cultures of strains were grown in 5 ml LB (with antibiotic where appropriate) at 37° C. in a shaking incubator. A 1 v/v % was used to inoculate 10 mL of M9 minimal media. After the cells reached mid-exponential phase, the culture was diluted to an OD600 of 0.200. The cells were further diluted 1:20 and a 10 ul aliquot was used to inoculate each well (˜10^4 cells per well). […] The MIC endpoint is the lowest concentration of compound at which there was no visible growth.

MACH1™-T1® E. Coli = assay: IroK expression study, microaerobic MIC, MOPS minimal media, 1 mM IPTG; assay type: cell-based; details: IroK expressed from pKK223-3; data not shown
Method: The two oligonucleotides were added in a 1:1 ratio and annealed according to standard methodology in a thermal cycler. Ligation of the annealed primer product with the pKK223-3 expression vector (SEQ ID NO:008, Pharmacia, Piscataway, N.J.) was performed with T4 Ligase (Invitrogen, Carlsbad, Calif.) and incubated at 25° C. overnight. The ligation product was then electroporated into competent MACH1™-T1®, plated on LB+ampicillan, and incubated at 37° C. for 24 hours. Plasmids were isolated and confirmed by purification and subsequent restriction digest and sequencing (Macrogen, Rockville, Md.). MICs were then determined corresponding to 1 mM IPTG induction.
The minimum inhibitory concentration (MIC) was determined microaerobically in a 96 well-plate format. Overnight cultures of strains were grown in 5 mL LB (with antibiotic where appropriate). A 1% (v/v) inoculum was introduced into a 15 ml culture of MOPS minimal media. After the cells reached mid-exponential phase, the culture was diluted to an OD600 of 0.200. The cells were further diluted 1:20 and a 10 μL aliquot was used to inoculate each well of a 96 well plate (˜10^4 cells per well).

E. Coli Mach1-T1® = assay: MIC of 3-HP, microaerobic, 96-well, MOPS minimal media (Examples 2 and 4); assay type: cell-based, Escherichia coli; details: supplement added to MOPS minimal media, 24 hours
E. Coli BW25113 [4] = assay: MIC evaluation general protocol, E. Coli anaerobic (Tables 7 and 9); assay type: cell-based; details: for MIC: Escherichia coli, read-out: MIC Assay Result (g/L 3-HP); for % Increase Over Control: MIC vs BW25113 in M9 without supplement
Method: The minimum inhibitory concentration (MIC) was determined anerobically in a 96 well-plate format. […] Overnight cultures of strains were grown in triplicate in 5 mL LB (with antibiotic where appropriate). A 1% (v/v) inoculum was introduced into a 5 ml culture of M9 minimal media.
as §1

[5] = tested on: Yeast strains, S288 C background; assay: Yeast aerobic MIC evaluation (Tables 13 and 15); assay type: cell-based; details: Saccharomyces cerevisiae, read-out: Average MIC Assay Result (g/L 3-HP), S288C, SD media, aerobic, MIC of 3-HP with the named supplement (label 3-HP = no supplement)
Method: The minimum inhibitory concentration (MIC) was determined aerobically in a 96 well-plate format. […] A 1% (v/v) inoculum was introduced into a 5 ml culture of SD minimal media without vitamins. After the cells reached mid-exponential phase, the culture was diluted to an OD600 of 0.200. The cells were further diluted 1:5 and a 10 μL aliquot was used to inoculate each well of a 96 well plate (˜10^4 cells per well) to total volume of 100 uL. […] Plates were incubated for 72 hours at 30 C.

[6] = BW25113, M9 with supplements at Table 3 levels (or EZ Rich), anaerobic, 24 hours

O=C(O)CCO [Strain 3-HP, 3-hydroxypropionic acid]
Avg 24 hr ΔOD600 (B. subtilis): 0.04 | solubility [1]: > 35 mg/mL

N[C@@H](CCS)C(=O)O [Homocysteine]
average MIC Assay Result (g/L 3-HP) (E. Coli BW25113 [2]): 30 g/L 3-HP | % Increase Over Control (E. Coli BW25113 [2]): 9% | % Increase Over Control ([3]; S288C, SD media, anaerobic, MIC with supplement vs no supplement): 7% | MIC [3]: 40 g/L (≈ 296 mM)

O=C([O-])O.[Na+] [Bicarbonate, sodium bicarbonate]
Minimum inhibitory concentration (MIC) of 3-HP (E. Coli K12): 30 mg/mL

CC(O)C(=O)O (stereo not drawn) [lactic]
MICs of other organic acids with IroK expression (MACH1™-T1® E. Coli): unchanged

CC(=O)O [acetic]
MICs of other organic acids with IroK expression (MACH1™-T1® E. Coli): unchanged

N[C@@H](CCO)C(=O)O [Homoserine]
MIC increases (3-HP) with supplementation (E. Coli Mach1-T1®): 33% | MIC (E. Coli BW25113 [4]; [6]): 30 g/L (≈ 252 mM) | % Increase Over Control (E. Coli BW25113 [4]; anaerobic): 0%

Tetrahydrofolate
average MIC Assay Result (g/L 3-HP) (E. Coli BW25113 [2]): 30 g/L 3-HP | % Increase Over Control (E. Coli BW25113 [2]): 9% | MIC Assay Result (g/L 3-HP) (E. Coli BW25113 [4]; [6]): 40.0 g/L | % Increase Over Control (E. Coli BW25113 [4]; anaerobic): 33%

NCCCCN [Putrescine]
MIC (E. Coli BW25113 [4]; [6]): 35 g/L (≈ 397 mM) | % Increase Over Control (E. Coli BW25113 [4]; anaerobic): 17%

C[C@@H](O)[C@H](N)C(=O)O [Threonine]
MIC increases (3-HP) with supplementation (E. Coli Mach1-T1®): 3%

N[C@@H](Cc1ccccc1)C(=O)O [Phenylalanine]
MIC increases (3-HP) with supplementation (E. Coli Mach1-T1®): 33% | MIC (E. Coli BW25113 [4]; [6]): 32.1 g/L (≈ 194 mM) | % Increase Over Control (E. Coli BW25113 [4]; anaerobic): 7%

N[C@@H](Cc1ccc(O)cc1)C(=O)O [Tyrosine]
MIC increases (3-HP) with supplementation (E. Coli Mach1-T1®): 40%

C=CC(=O)O [acrylic, acrylic acid]
MICs of other organic acids with IroK expression (MACH1™-T1® E. Coli): unchanged

NCCCC[C@H](N)C(=O)O [Lysine]
MIC (E. Coli BW25113 [4]; BW25113, 24 h): 41.7 g/L (≈ 285 mM) | MIC [3]: 45 g/L (≈ 308 mM)

Cl.NC1CCSC1=O (stereo not drawn) [homocysteine thiolactone hydrochloride]
MIC increases (3-HP) with supplementation (E. Coli Mach1-T1®): 60%

Cc1ncc(CO)c(CO)c1O.Cl [pyridoxine hydrochloride]
MIC increases (3-HP) with supplementation (E. Coli Mach1-T1®): 0%

CSCC[C@H](N)C(=O)O [Methionine]
MIC (E. Coli BW25113 [4]; [6]): 42.8 g/L (≈ 287 mM) | % Increase Over Control (E. Coli BW25113 [4]; anaerobic): 43%

O=C(O)C1=C[C@@H](O)[C@@H](O)[C@H](O)C1 [Shikimate (A)]
MIC [5]: 80 g/L | MIC [3]: 60 g/L (≈ 345 mM)

CC[C@H](C)[C@H](N)C(=O)O [Isoleucine (B)]
MIC [3]: 38 g/L (≈ 290 mM)

NC(=O)NCCC[C@H](N)C(=O)O [Citrulline (C)]
MIC [5]: 58 g/L | MIC [3]: 97 g/L (≈ 554 mM)

O=C(O)c1cccc(O)c1O [Dihydroxybenzoate, 2,3-dihydroxybenzoic acid]
MIC increases (3-HP) with supplementation (E. Coli Mach1-T1®): 33% | average MIC Assay Result (g/L 3-HP) (E. Coli BW25113 [2]): 35 g/L 3-HP | % Increase Over Control (E. Coli BW25113 [2]): 27% | MIC (E. Coli BW25113 [4]; [6]): 40 g/L (≈ 260 mM) | % Increase Over Control (E. Coli BW25113 [4]; anaerobic): 33%

CCC(=O)C(=O)O [2-oxobutyrate]
MIC increases (3-HP) with supplementation (E. Coli Mach1-T1®): 7%

N[C@@H](Cc1c[nH]c2ccccc12)C(=O)O [Tryptophan]
MIC increases (3-HP) with supplementation (E. Coli Mach1-T1®): 33%

Nc1ccc(C(=O)O)cc1 [p-aminobenzoate]
MIC increases (3-HP) with supplementation (E. Coli Mach1-T1®): 7%

NCCCCNCCCN [Spermidine]
MIC (E. Coli BW25113 [4]; [6]): 35 g/L (≈ 241 mM) | % Increase Over Control (E. Coli BW25113 [4]; anaerobic): 17%

N[C@@H](CO)C(=O)O [Serine]
MIC (E. Coli BW25113 [4]; [6]): 32.1 g/L (≈ 305 mM) | MIC [3]: 45 g/L (≈ 428 mM)

NNC(=O)c1ccc(O)cc1 [p-hydroxybenzoic acid hydrazide]
MIC increases (3-HP) with supplementation (E. Coli Mach1-T1®): 33%
